Structures are written as SMILES. pIC50: −log10 of the molar value.

Here are results for 25 compounds from patent publication US9593108B2, “Compounds and methods for antiviral treatment” (PTC Therapeutics, Inc., priority 2009, dated 2017).

For data set [1], the system named is HCV replicon RNA (GenBank Accession No. AJ242654). Put plainly: HCV Replicon Assay (replicon RNA reduction and/or Fluc reporter signal). Type of data set: cell-based, Hepatitis C virus. The conditions noted are these: Hepatitis C virus, 72 h, replicon-containing cells cultured with test compound for up to 3 days. Summed up: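 Bicistronic replicon-containing cells cultured with compound for up to 3 days, with interferon as positive control. Inhibition quantified by replicon RNA reduction and/or Fluc reporter signal; IC50 values generally derived from replicon RNA reduction.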
A general note: Replicon systems follow genome replication, usually without infectious particles.

In turn, `Cc1cnc2c(c1)c(C#N)c(-c1ccc(S(=O)(=O)N[C@@H](C)C(F)(F)F)cn1)n2-c1cc(C(F)(F)F)ccn1` [Cpd 433, 6-{3-cyano-5-methyl-1-[4-(trifluoromethyl)pyridin-2-yl]-1H-pyrrolo[2,3-b]pyridin-2-yl}-N-[(2S)-1,1,1-trifluoropropan-2-yl]pyridine-3-sulfonamide] had a melting point of 192 to 194 °C. This compound also showed a pIC50 in data set [1] greater than 6.30.

Take `CC(C)(C)NS(=O)(=O)c1ccc(-c2c(C(N)=O)c3cc(C(F)(F)F)cnc3n2C2CCCCC2)cc1` [Cpd 443, 2-[4-(tert-butylsulfamoyl)phenyl]-1-cyclohexyl-5-(trifluoromethyl)-1H-pyrrolo[2,3-b]pyridine-3-carboxamide]: the melting point was in the range of 290 to 292 °C. This compound also showed a pIC50 in data set [1] greater than 6.30.

As to `CC1(NS(=O)(=O)c2ccc(-c3c(C#N)c4cc(C(F)(F)F)cnc4n3C3CCC3)nc2)CC1` [Cpd 398, 6-[3-cyano-1-cyclobutyl-5-(trifluoromethyl)-1H-pyrrolo[2,3-b]pyridin-2-yl]-N-(1-methylcyclopropyl)pyridine-3-sulfonamide], the melting point was in the range of 172 to 175 °C. This compound also gave a pIC50 in data set [1] greater than 6.30.

`Cc1cc2c(C#N)c(-c3ccc(S(=O)(=O)N[C@@H](C)C(F)(F)F)cn3)n(C3CCC3)c2cn1` [Cpd 165, 6-(3-cyano-1-cyclobutyl-5-methyl-1H-pyrrolo[2,3-c]pyridin-2-yl)-N-[(2S)-1,1,1-trifluoropropan-2-yl]pyridine-3-sulfonamide] showed a melting point of 185 to 188 °C. The pIC50 in data set [1] was 5.70 to 6.30.

On to `CC(C)S(=O)(=O)Nc1ccc(-c2c(C#N)c3cc(C(F)(F)F)cnc3n2C2CCCCC2)cc1` [Cpd 425, N-{4-[3-cyano-1-cyclohexyl-5-(trifluoromethyl)-1H-pyrrolo[2,3-b]pyridin-2-yl]phenyl}propane-2-sulfonamide], for which the melting point was 228 to 230 °C. Besides, in data set [1], the negative logarithm of the IC50 (pIC50) was greater than 6.30.

Compound `N#Cc1c(-c2ncc(S(=O)(=O)NC(CF)CF)cn2)n(C2CCC2)c2cc(Cl)ncc12` [Cpd 101, 2-(6-chloro-3-cyano-1-cyclobutyl-1H-pyrrolo[3,2-c]pyridin-2-yl)-N-(1,3-difluoropropan-2-yl)pyrimidine-5-sulfonamide] showed a melting point of 237 to 238 °C. For the same compound, the pIC50 in data set [1] is greater than 6.30.

As for `C[C@H](NS(=O)(=O)c1ccc(-c2c(C#N)c3cc([S+](C)[O-])cnc3n2C2CCC2)nc1)C(F)(F)F` (stereo partly drawn) [Cpd 363, [3-cyano-1-cyclobutyl-2-(5-{[(2S)-1,1,1-trifluoropropan-2-yl]sulfamoyl}pyridin-2-yl)-1H-pyrrolo[2,3-b]pyridin-5-yl](methyl)sulfoniumolate], the melting point lay in the range of 257 to 258 °C. In data set [1], this compound showed a pIC50 greater than 6.30.

In turn, `C[C@H](NS(=O)(=O)c1ccc(-c2c(C#N)c3cc(C(F)(F)F)cnc3n2CC2CC2)nc1)C(F)(F)F` [Cpd 295, 6-[3-cyano-1-(cyclopropylmethyl)-5-(trifluoromethyl)-1H-pyrrolo[2,3-b]pyridin-2-yl]-N-[(2S)-1,1,1-trifluoropropan-2-yl]pyridine-3-sulfonamide] came in with a melting point of 193 to 195 °C. The same compound gave a pIC50 in data set [1] greater than 6.30.

In the case of `C[C@H](NS(=O)(=O)c1ccc(-c2c(C#N)c3cc(OC(F)F)cnc3n2C2CCC2)cc1)C(F)(F)F` [Cpd 198, 4-[3-cyano-1-cyclobutyl-5-(difluoromethoxy)-1H-pyrrolo[2,3-b]pyridin-2-yl]-N-[(2S)-1,1,1-trifluoropropan-2-yl]benzenesulfonamide], the melting point is 155 to 156 °C. This compound showed a pIC50 in data set [1] of 5.70 to 6.30.

As for `Cc1cnc2c(c1)c(C#N)c(-c1ccc(S(=O)(=O)N[C@@H](C)C(F)(F)F)cn1)n2-c1cccc(F)c1` [Cpd 502, 6-[3-cyano-1-(3-fluorophenyl)-5-methyl-1H-pyrrolo[2,3-b]pyridin-2-yl]-N-[(2S)-1,1,1-trifluoropropan-2-yl]pyridine-3-sulfonamide], the melting point is 238 to 240 °C. In data set [1], this compound gave a pIC50 greater than 6.30.

In turn, `N#Cc1c(-c2ccc(S(=O)(=O)NC3CC3)cn2)n(C2CCC2)c2cnc(Cl)cc12` [Cpd 106, 6-(5-chloro-3-cyano-1-cyclobutyl-1H-pyrrolo[2,3-c]pyridin-2-yl)-N-cyclopropylpyridine-3-sulfonamide] yielded a melting point of 170 to 172 °C. For the same compound, the pIC50 in data set [1] is greater than 6.30.

The compound `Cc1cnc2c(c1)c(C#N)c(-c1ccc(S(=O)(=O)NC3(C)CC3)cn1)n2C1CCC1` [Cpd 76, 6-(3-cyano-1-cyclobutyl-5-methyl-1H-pyrrolo[2,3-b]pyridin-2-yl)-N-(1-methylcyclopropyl)pyridine-3-sulfonamide] yielded a melting point of 188 to 189 °C. The same compound showed a pIC50 in data set [1] of 5.70 to 6.30.

In the case of `Cc1cnc2c(C#N)c(-c3ccc(S(=O)(=O)N[C@@H](C)C(F)(F)F)cn3)n(C3CCCC3)c2c1` [Cpd 170, 6-(3-cyano-1-cyclopentyl-6-methyl-1H-pyrrolo[3,2-b]pyridin-2-yl)-N-[(2S)-1,1,1-trifluoropropan-2-yl]pyridine-3-sulfonamide], the melting point was 210 to 212 °C. In data set [1], the pIC50 was greater than 6.30.

The compound `CC(C)(NS(=O)(=O)c1ccc(-c2c(C(N)=O)c3cc(C(F)(F)F)cnc3n2C2CCCCC2)cc1)C(F)(F)F` [Cpd 439, 1-cyclohexyl-5-(trifluoromethyl)-2-{4-[(1,1,1-trifluoro-2-methylpropan-2-yl)sulfamoyl]phenyl}-1H-pyrrolo[2,3-b]pyridine-3-carboxamide] yielded a melting point of 280 to 283 °C. In addition, the negative logarithm of the IC50 (pIC50) in data set [1] is greater than 6.30.

`C[C@H](NS(=O)(=O)c1ccc(-c2c(C#N)c3ccncc3n2C2CCC2)nc1)C(F)(F)F` [Cpd 103, 6-(3-cyano-1-cyclobutyl-1H-pyrrolo[2,3-c]pyridin-2-yl)-N-[(2S)-1,1,1-trifluoropropan-2-yl]pyridine-3-sulfonamide] returned a melting point of 199 to 201 °C. The pIC50 in data set [1] is greater than 6.30.

For the compound `COc1ccnc(-n2c(-c3ccc(S(=O)(=O)N[C@@H](C)C(F)(F)F)cn3)c(C#N)c3cc(C(F)(F)F)cnc32)n1` [Cpd 333, 6-[3-cyano-1-(4-methoxypyrimidin-2-yl)-5-(trifluoromethyl)-1H-pyrrolo[2,3-b]pyridin-2-yl]-N-[(2S)-1,1,1-trifluoropropan-2-yl]pyridine-3-sulfonamide], the melting point was in the range of 209 to 211 °C. In data set [1], this compound showed a negative logarithm of the IC50 (pIC50) of 5.30 to 5.70.

The compound `Cc1ccc2c(C#N)c(-c3ccc(S(=O)(=O)NC(CF)CF)cn3)n(C3CCC3)c2n1` [Cpd 146, 6-(3-cyano-1-cyclobutyl-6-methyl-1H-pyrrolo[2,3-b]pyridin-2-yl)-N-(1,3-difluoropropan-2-yl)pyridine-3-sulfonamide] gave a melting point of 180 to 188 °C. Also, the pIC50 in data set [1] is greater than 6.30.

`COc1cnc2c(c1)c(C#N)c(-c1ccc(S(=O)(=O)NC(CF)CF)cc1)n2C1CCC1` [Cpd 65, 4-(3-cyano-1-cyclobutyl-5-methoxy-1H-pyrrolo[2,3-b]pyridin-2-yl)-N-(1,3-difluoropropan-2-yl)benzenesulfonamide]: the melting point was 215 to 218 °C. The pIC50 in data set [1] is greater than 6.30.

With `CC(C)(NS(=O)(=O)c1ccc(-c2c(C(N)=O)c3cc(C(F)F)cnc3n2C2CCC2)nc1)C(F)(F)F` [Cpd 471, 1-cyclobutyl-5-(difluoromethyl)-2-{5-[(1,1,1-trifluoro-2-methylpropan-2-yl)sulfamoyl]pyridin-2-yl}-1H-pyrrolo[2,3-b]pyridine-3-carboxamide], the melting point was 205 to 207 °C. Also, the pIC50 in data set [1] was greater than 6.30.

Consider `NC(=O)c1c(-c2ccc(S(=O)(=O)NC3(C(F)(F)F)CC3)cn2)n(C2CCCCC2)c2ncc(C(F)(F)F)cc12` [Cpd 440, 1-cyclohexyl-5-(trifluoromethyl)-2-(5-{[1-(trifluoromethyl)cyclopropyl]sulfamoyl}pyridin-2-yl)-1H-pyrrolo[2,3-b]pyridine-3-carboxamide], for which the melting point lay within 272 to 275 °C. The compound further gave a negative-log IC50 (pIC50) in data set [1] greater than 6.30.

For `CC(C)Oc1cnc2c(c1)c(C#N)c(-c1ccc(S(=O)(=O)N[C@@H](C)C(F)(F)F)cn1)n2C1CCC1` [Cpd 218, 6-[3-cyano-1-cyclobutyl-5-(propan-2-yloxy)-1H-pyrrolo[2,3-b]pyridin-2-yl]-N-[(2S)-1,1,1-trifluoropropan-2-yl]pyridine-3-sulfonamide], the melting point is 168 to 169 °C. Moreover, the pIC50 in data set [1] is greater than 6.30.

Compound `Cc1cnc2c(c1)c(C#N)c(-c1ccc(S(=O)(=O)N[C@@H](C)C(F)(F)F)cn1)n2-c1ccccn1` [Cpd 346, 6-[3-cyano-5-methyl-1-(pyridin-2-yl)-1H-pyrrolo[2,3-b]pyridin-2-yl]-N-[(2S)-1,1,1-trifluoropropan-2-yl]pyridine-3-sulfonamide] registered a melting point of 165 to 167 °C. Moreover, the pIC50 in data set [1] is greater than 6.30.

In turn, `Cc1cnc2c(C#N)c(-c3ccc(S(=O)(=O)N[C@H](C)C(F)(F)F)cn3)n(C3CCC3)c2c1` [Cpd 207, 6-(3-cyano-1-cyclobutyl-6-methyl-1H-pyrrolo[3,2-b]pyridin-2-yl)-N-[(2R)-1,1,1-trifluoropropan-2-yl]pyridine-3-sulfonamide] gave a melting point of 207 to 209 °C. In addition, in data set [1], the pIC50 was 5.70 to 6.30.

With `Cc1cnc2c(c1)c(C#N)c(-c1ccc(S(=O)(=O)N[C@@H](C)C(F)(F)F)cn1)n2-c1cncnc1` [Cpd 384, 6-[3-cyano-5-methyl-1-(pyrimidin-5-yl)-1H-pyrrolo[2,3-b]pyridin-2-yl]-N-[(2S)-1,1,1-trifluoropropan-2-yl]pyridine-3-sulfonamide], the melting point was 231 to 233 °C. Further, the pIC50 in data set [1] is greater than 6.30.

Consider `C[C@H](NS(=O)(=O)c1ccc(-c2c(C#N)c3cc(Br)cnc3n2-c2ncccn2)nc1)C(F)(F)F` [Cpd 339, 6-[5-bromo-3-cyano-1-(pyrimidin-2-yl)-1H-pyrrolo[2,3-b]pyridin-2-yl]-N-[(2S)-1,1,1-trifluoropropan-2-yl]pyridine-3-sulfonamide], for which the melting point lay within 223 to 225 °C. This compound also had a pIC50 in data set [1] greater than 6.30.

As a reminder, the pIC50 is −log10 of the IC50, conventionally taken in molar units. What is called melting point is the temperature of the solid-liquid transition.
